From patent US10758534B2 (Vertex Pharmaceuticals Incorporated, priority 2014, dated 2020)

What follows are molecules tested against T1, F508del (Homo sapiens, UniProt P13569, DEL508-508) (assay: Protocol 2: FRET membrane potential optical assay (VIPR), identification of correction compounds). Details: Table 3; compounds of Table 1 as modulators of CFTR activity; protocol not stated.
T1 construct: expressed in transfected cells
Type: cell-based
Method in brief: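 NIH3T3 mouse fibroblasts stably expressing F508del were treated with test compound for 16 hrs at 37° C. in serum-free medium; 27° C. incubation served as positive control. F508del was activated with 10 μM forskolin plus 20 μM genistein in Cl^−-free medium, and Cl^− efflux-driven depolarization was read by DiSBAC2(3)/CC2-DMPE FRET.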

T1 sequence (P13569 with tags, fused parts or gaps DEL508-508): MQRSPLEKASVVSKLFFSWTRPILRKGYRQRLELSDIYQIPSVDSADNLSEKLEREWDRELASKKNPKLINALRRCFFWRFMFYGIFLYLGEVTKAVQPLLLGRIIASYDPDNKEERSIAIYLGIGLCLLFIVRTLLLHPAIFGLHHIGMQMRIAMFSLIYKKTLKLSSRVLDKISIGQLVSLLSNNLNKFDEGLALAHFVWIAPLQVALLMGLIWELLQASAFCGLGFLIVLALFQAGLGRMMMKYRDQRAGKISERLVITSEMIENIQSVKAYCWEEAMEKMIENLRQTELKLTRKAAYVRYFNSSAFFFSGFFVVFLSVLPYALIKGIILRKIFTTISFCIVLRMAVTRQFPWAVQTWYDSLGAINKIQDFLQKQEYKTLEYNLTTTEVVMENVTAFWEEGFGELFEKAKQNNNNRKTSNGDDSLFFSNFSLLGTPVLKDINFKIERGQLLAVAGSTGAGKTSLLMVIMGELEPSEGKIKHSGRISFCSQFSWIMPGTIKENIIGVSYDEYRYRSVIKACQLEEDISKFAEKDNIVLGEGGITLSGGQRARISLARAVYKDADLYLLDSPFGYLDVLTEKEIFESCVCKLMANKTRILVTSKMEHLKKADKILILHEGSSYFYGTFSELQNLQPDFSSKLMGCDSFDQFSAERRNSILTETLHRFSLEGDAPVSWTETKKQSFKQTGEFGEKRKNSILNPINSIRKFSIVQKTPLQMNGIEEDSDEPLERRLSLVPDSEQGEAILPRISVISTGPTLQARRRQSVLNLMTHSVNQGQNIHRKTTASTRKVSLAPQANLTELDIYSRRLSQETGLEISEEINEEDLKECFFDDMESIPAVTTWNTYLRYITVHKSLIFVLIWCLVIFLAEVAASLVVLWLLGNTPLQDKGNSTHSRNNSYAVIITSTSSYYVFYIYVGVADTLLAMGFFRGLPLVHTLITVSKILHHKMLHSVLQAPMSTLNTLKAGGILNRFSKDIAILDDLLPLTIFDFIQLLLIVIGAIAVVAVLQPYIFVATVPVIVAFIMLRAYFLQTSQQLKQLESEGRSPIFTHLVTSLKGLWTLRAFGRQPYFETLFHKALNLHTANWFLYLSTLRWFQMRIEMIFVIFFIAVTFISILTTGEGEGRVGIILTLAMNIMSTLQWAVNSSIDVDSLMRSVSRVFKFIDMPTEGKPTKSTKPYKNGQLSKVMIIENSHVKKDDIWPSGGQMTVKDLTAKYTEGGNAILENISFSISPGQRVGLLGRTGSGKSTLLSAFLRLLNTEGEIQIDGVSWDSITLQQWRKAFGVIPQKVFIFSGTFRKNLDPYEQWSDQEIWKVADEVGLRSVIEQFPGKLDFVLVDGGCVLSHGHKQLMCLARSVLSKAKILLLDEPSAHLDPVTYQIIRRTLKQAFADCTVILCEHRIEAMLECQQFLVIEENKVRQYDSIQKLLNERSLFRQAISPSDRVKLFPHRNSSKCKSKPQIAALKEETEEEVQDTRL

EC30	Structure (SMILES)
+++ (“+++” means <3 uM)	COc1c(F)cccc1-c1ccc(C(=O)NS(=O)(=O)c2cccc(N)n2)c(Oc2c(C)cc(C)cc2C)n1 [Compound 396, N-[(6-amino-2-pyridyl)sulfonyl]-6-(3-fluoro-2-methoxy-phenyl)-2-(2,4,6-trimethylphenoxy)pyridine-3-carboxamide]
+++ (“+++” means <3 uM)	Cc1cc(C)c(Oc2nc(-c3ccc(C)c(C)c3)ccc2C(=O)NS(=O)(=O)c2cccc(N)n2)c(C)c1 [Compound 399, N-[(6-amino-2-pyridyl)sulfonyl]-6-(3,4-dimethylphenyl)-2-(2,4,6-trimethylphenoxy)pyridine-3-carboxamide]
+++ (“+++” means <3 uM)	Cc1cc(C)c(Oc2nc(C(C)(C)C)ccc2C(=O)NS(=O)(=O)c2cn[nH]c2)c(C)c1 [Compound 401, 6-tert-butyl-N-(1H-pyrazol-4-ylsulfonyl)-2-(2,4,6-trimethylphenoxy)pyridine-3-carboxamide]
++ (“++” means between 3 uM and 10 uM)	CC(C)Oc1ccc(-c2ccc(C(=O)NS(=O)(=O)c3ccc[nH]c3=O)c(N3C[C@H](C)CC3(C)C)n2)cn1 [Compound 403, 6-(6-isopropoxy-3-pyridyl)-N-[(2-oxo-1H-pyridin-3-yl)sulfonyl]-2-[(4R)-2,2,4-trimethylpyrrolidin-1-yl]pyridine-3-carboxamide]
+++ (“+++” means <3 uM)	COc1cc(F)ccc1-c1ccc(C(=O)NS(=O)(=O)c2cc[nH]n2)c(Oc2c(C)cc(C)cc2C)n1 [Compound 405, 6-(4-fluoro-2-methoxy-phenyl)-N-(1H-pyrazol-3-ylsulfonyl)-2-(2,4,6-trimethylphenoxy)pyridine-3-carboxamide]
+++ (“+++” means <3 uM)	CC(C)(C)c1ccc(C(=O)NS(=O)(=O)c2cccc(N)n2)c(C2CCCCC2)n1 [Compound 411, N-[(6-amino-2-pyridyl)sulfonyl]-6-tert-butyl-2-cyclohexyl-pyridine-3-carboxamide]
+++ (“+++” means <3 uM)	CC(C)CN(C)c1ccc(-c2ccc(C(=O)NS(=O)(=O)c3cccc(N)n3)c(N3CC(C)CC3(C)C)n2)cn1 (stereo not shown) [Compound 412, N-[(6-amino-2-pyridyl)sulfonyl]-6-[6-[isobutyl(methyl)amino]-3-pyridyl]-2-(2,2,4-trimethylpyrrolidin-1-yl)pyridine-3-carboxamide]

More lines, now with the values behind:

Structure (SMILES)	EC30
CC(C)COc1cc(F)cc(-c2ccc(C(=O)NS(=O)(=O)c3ccn[nH]3)c(NCC3CC(F)(F)C3)n2)c1 [Compound 393, 2-[(3,3-difluorocyclobutyl)methylamino]-6-(3-fluoro-5-isobutoxy-phenyl)-N-(1H-pyrazol-5-ylsulfonyl)pyridine-3-carboxamide]	++ (“++” means between 3 uM and 10 uM)
Cc1cc(C)c(CN2Cc3cccc(O)c3C2(C)C(=O)NS(=O)(=O)c2cccc(N)n2)c(C)c1 (stereo not shown) [Compound 394, N-[(6-amino-2-pyridyl)sulfonyl]-7-hydroxy-1-methyl-2-[(2,4,6-trimethylphenyl)methyl]isoindoline-1-carboxamide]	+++ (“+++” means <3 uM)
CC(C)COc1cc(F)cc(-c2ccc(C(=O)NS(=O)(=O)c3cccc(O)c3)c(N3CC(C)CC3(C)C)n2)c1 (stereo not shown) [Compound 395, 6-(3-fluoro-5-isobutoxy-phenyl)-N-(3-hydroxyphenyl)sulfonyl-2-(2,2,4-trimethylpyrrolidin-1-yl)pyridine-3-carboxamide]	+++ (“+++” means <3 uM)
CC(C)COc1cccc(-c2ccc(C(=O)NS(=O)(=O)c3cccc(N)n3)c(N3CC(C)CC3(C)C)n2)n1 (stereo not shown) [Compound 397, N-[(6-amino-2-pyridyl)sulfonyl]-6-(6-isobutoxy-2-pyridyl)-2-(2,2,4-trimethylpyrrolidin-1-yl)pyridine-3-carboxamide]	+++ (“+++” means <3 uM)
CC(C)COc1cc(F)cc(-c2ccc(C(=O)NS(=O)(=O)c3cccc(N)n3)c(N3CCC[C@@H]3C(F)(F)F)n2)c1 [Compound 398, N-[(6-amino-2-pyridyl)sulfonyl]-6-(3-fluoro-5-isobutoxy-phenyl)-2-[(2R)-2-(trifluoromethyl)pyrrolidin-1-yl]pyridine-3-carboxamide]	+++ (“+++” means <3 uM)
CC(C)Oc1cncc(-c2ccc(C(=O)NS(=O)(=O)c3cccc(N)n3)c(N3[C@H](C)CC[C@@H]3C)n2)c1 [Compound 400, N-[(6-amino-2-pyridyl)sulfonyl]-2-[(2S,5R)-2,5-dimethylpyrrolidin-1-yl]-6-(5-isopropoxy-3-pyridyl)pyridine-3-carboxamide]	++ (“++” means between 3 uM and 10 uM)
CC1CN(c2nc(-c3ccnc(OC(C)C)c3)ccc2C(=O)NS(=O)(=O)c2cccc(N)n2)C(C)(C)C1 (stereo not shown) [Compound 402, N-[(6-amino-2-pyridyl)sulfonyl]-6-(2-isopropoxy-4-pyridyl)-2-(2,2,4-trimethylpyrrolidin-1-yl)pyridine-3-carboxamide]	+++ (“+++” means <3 uM)
Cc1cc(C)c(Cn2c(C(=O)NS(=O)(=O)c3cccc(N)n3)cc3cc(C(C)C)ccc32)c(C)c1 [Compound 404, N-[(6-amino-2-pyridyl)sulfonyl]-5-isopropyl-1-[(2,4,6-trimethylphenyl)methyl]indole-2-carboxamide]	+++ (“+++” means <3 uM)
COc1ccc2c(c1)CN(Cc1c(C)cc(C)cc1C)C2(C)C(=O)NS(=O)(=O)c1cccc(N)n1 (stereo not shown) [Compound 406, N-[(6-amino-2-pyridyl)sulfonyl]-5-methoxy-1-methyl-2-[(2,4,6-trimethylphenyl)methyl]isoindoline-1-carboxamide]	+++ (“+++” means <3 uM)
Cc1ccc(-c2nc(C(C)(C)C)ccc2C(=O)NS(=O)(=O)c2ccccn2)cc1 [Compound 407, 6-tert-butyl-2-(p-tolyl)-N-(2-pyridylsulfonyl)pyridine-3-carboxamide]	++ (“++” means between 3 uM and 10 uM)
CC(C)COc1cc(F)cc(-c2ccc(C(=O)NS(=O)(=O)c3cccc(N)n3)c(N3CCC[C@@H](C)C3)n2)c1 [Compound 408, N-[(6-amino-2-pyridyl)sulfonyl]-6-(3-fluoro-5-isobutoxy-phenyl)-2-[(3R)-3-methyl-1-piperidyl]pyridine-3-carboxamide]	+++ (“+++” means <3 uM)
CCOc1ccc(-c2ccc(C(=O)NS(=O)(=O)c3cccc(N)n3)c(-c3ccc(C)cc3)n2)cc1 [Compound 409, N-[(6-amino-2-pyridyl)sulfonyl]-6-(4-ethoxyphenyl)-2-(p-tolyl)pyridine-3-carboxamide]	+ (“+” means greater than 10 uM)
CCOc1cccc2c1CN(Cc1c(C)cc(C)cc1C)C2(C)C(=O)NS(=O)(=O)c1ccc[nH]c1=O (stereo not shown) [Compound 410, 4-ethoxy-1-methyl-N-[(2-oxo-1H-pyridin-3-yl)sulfonyl]-2-[(2,4,6-trimethylphenyl)methyl]isoindoline-1-carboxamide]	+++ (“+++” means <3 uM)
COc1cccc(-c2ccc(C(=O)NS(=O)(=O)c3cccc(N)n3)c(Oc3c(C)cc(C)cc3C)n2)c1 [Compound 413, N-[(6-amino-2-pyridyl)sulfonyl]-6-(3-methoxyphenyl)-2-(2,4,6-trimethylphenoxy)pyridine-3-carboxamide]	+++ (“+++” means <3 uM)
CC(C)c1ccc(-c2ccc(C(=O)NS(=O)(=O)c3ccn[nH]3)c(N3[C@H](C)CC[C@@H]3C)n2)cc1 [Compound 414, 2-[(2S,5R)-2,5-dimethylpyrrolidin-1-yl]-6-(4-isopropylphenyl)-N-(1H-pyrazol-5-ylsulfonyl)pyridine-3-carboxamide]	+++ (“+++” means <3 uM)
